Assay results reported in patent US20110207807A1, “NEW USE FOR HOMOISOFLAVONE OR A SALT THEREOF” (Catholic University Industry Academy Cooperation Foundation, priority 2008, published 2011).

What was measured:
leukotriene B4 = test: Release of leukotriene B4 induced by PMA and A23187 in HMC-1 (enzyme immunoassay); type: cell-based, human
Excerpt: (§1) Phorbol 12-myristate 13-acetate and A23187 lead to degranulation of human mast cells (HMC), causing the mast cells to release not only their histamine or serotonin but also newly produced inflammatory factors such as pro-inflammatory cytokines, prostaglandins and leukotrienes. It was investigated whether homoisoflavanone has anti-inflammatory effect in mast cells as in Examples 4 and 5. In order to investigate the effect of homoisoflavanone on the release of leukotriene induced by phorbol 12-myristate 13-acetate and A23187 in HMC-1, 1×10^6 HMC-1 cells were inoculated on a 100-mm culture dish and cultured in Iscove's modified Dulbecco's medium (IMDM, GIBCO) containing 10% FBS for 48 hours. Then, after treating with homoisoflavanone at 2 μg/mL or with mizolastine at 10 μg/mL for comparison for 1 hour, the cells were treated with 50 nM phorbol 12-myristate 13-acetate and 1 μM A23187 to induce release of leukotriene, and then further cultured for 21 hours. Then, the supernatant was collected and the quantity of released leukotriene B4 and C4 was measured using a leukotriene B4, C4 enzyme immunoassay kit (Sapphire Bioscience, Australia).

leukotriene C4 = test: Release of leukotriene C4 induced by PMA and A23187 in HMC-1 (enzyme immunoassay); type: cell-based; details: Homo sapiens, HMC1; HMC-1, homoisoflavanone 2 μg/mL or mizolastine 10 μg/mL, 50 nM PMA + 1 μM A23187, 21 hours (FIG. 6b)
Excerpt: as §1

CN(c1nccc(=O)[nH]1)C1CCN(c2nc3ccccc3n2Cc2ccc(F)cc2)CC1 [mizolastine, reference compound]
leukotriene B4 release when treated alone, versus non-treated group (leukotriene B4; HMC-1, homoisoflavanone 2 μg/mL or mizolastine 10 μg/mL alone, without PMA/A23187 (FIG. 6a)): no appreciable difference
inhibition at 10 µg/mL (leukotriene B4; Homo sapiens, HMC1, HMC-1, homoisoflavanone 2 μg/mL or mizolastine 10 μg/mL, 50 nM PMA + 1 μM A23187, 21 hours (FIG. 6a)): 20%
inhibition at 10 µg/mL (leukotriene C4): ≥ 90%
